{"source": "patent US20060117411A1", "about": "“Enhancing plant pathogen resistance via increasing BiP levels” (priority 1998, published 2006)", "key": {"BiP protein levels": {"test_system": "BiP protein levels", "test": "SA spraying of tobacco plants, protein gel blot of BiP", "assay_type": "in vivo, Nicotiana tabacum", "details": "sprayed with SA 5 mM", "method": "It has been shown that SA is involved in the induction of PR genes (reviewed by Malamy and Klessig, 1992) and that this signal molecule also induces the expression of ER chaperones (Denecke et al, 1995). We wanted to investigate whether ER chaperone induction is a consequence of the high synthesis rates of PR genes and used BiP as a model system. Tobacco plants were sprayed with SA (5 mM) and the exact timing of the SA-mediated induction of PR-gene PRI was compared to that of BiP. PR1 was chosen as a representative marker for SA-mediated induction of PR genes as its response to SA is faster and more pronounced than that of acidic chitinase, basic chitinase and basic β-1.3 glucanase (Vidal et al, 1997). […] In contrast SA-induced transcription of PR1 starts only after 6-8 hours and continues to accumulate upto 16 hours after treatment. At this time-point, BiP mRNA levels start to decrease again. […]\nFully expanded leaves were collected and quickly frozen in liquid nitrogen. […] Protein concentrations were determined using Bio-Rad protein assay reagent\nProteins in SDS-polyacrylamide gels were transferred onto a nitrocellulose membrane and then blocked with PBS, 0.5% Tween 20, and 5% milk powder for 1 hr. […] Detection of antigen-antibody complexes was performed with enhanced chemiluminescence (ECL, Amersham Corp), and the images were recorded on film."}, "PR1 mRNA": {"test_system": "PR1 mRNA", "test": "SA spraying of tobacco plants, Northern blot of PR1 mRNA", "assay_type": "in vivo, Nicotiana tabacum", "method": "It has been shown that SA is involved in the induction of PR genes (reviewed by Malamy and Klessig, 1992) and that this signal molecule also induces the expression of ER chaperones (Denecke et al, 1995). We wanted to investigate whether ER chaperone induction is a consequence of the high synthesis rates of PR genes and used BiP as a model system. Tobacco plants were sprayed with SA (5 mM) and the exact timing of the SA-mediated induction of PR-gene PRI was compared to that of BiP. PR1 was chosen as a representative marker for SA-mediated induction of PR genes as its response to SA is faster and more pronounced than that of acidic chitinase, basic chitinase and basic β-1.3 glucanase (Vidal et al, 1997). […] In contrast SA-induced transcription of PR1 starts only after 6-8 hours and continues to accumulate upto 16 hours after treatment. At this time-point, BiP mRNA levels start to decrease again. We have shown previously that PR1 continuous to accumulate until 48 hours after SA treatment using the same experimental system (Vidal et al, 1997). […] BiP protein levels were also shown to increase (FIG. 7B), with a significant increase noticeable after 4-6 hours of induction.\nTo investigate further similarities and differences in the SA-mediated induction of BiP and PR genes, we tested if the presence of light is required for the induction. The rationale for this experiment was derived from the observation that SA inhibits catalase, resulting in an increase of active oxygen species in the plant, which would then induce PR genes such as PR1 (Chen et al, 1993). […]\nWe have shown that the SA-induced expression of PR1 is inhibited in a concentration dependent fashion by the presence of Erwinia carotovora culture filtrate containing cell wall-degrading enzymes (Vidal et al, 1997). […] Total RNA was extracted and the expression of chaperones was determined in relation to PR1. […]"}}, "data": [{"smiles": "O=C(O)c1ccccc1O", "note": "[SA, Salicylic Acid]", "values": [{"measurement": "time of induction after which a significant increase of BiP protein levels is noticeable", "setting": "BiP protein levels", "value": "4 to 6", "unit": "h"}, {"measurement": "PR1 induction during SA-treatment in the absence of light", "setting": "PR1 mRNA; SA 5 mM, 6 and 16 hours, dark vs light", "value": "almost completely abolished"}, {"measurement": "time after which SA-induced transcription of PR1 starts", "setting": "PR1 mRNA; sprayed with SA 5 mM", "value": "6 to 8", "unit": "h"}, {"measurement": "time up to which PR1 continues to accumulate", "setting": "PR1 mRNA; sprayed with SA 5 mM", "value": "≤ 16", "unit": "h"}]}]}
